Measured values: US20250127918A1, “SITE-SELECTIVE CONJUGATION OF A PHARMACEUTICAL AGENT TO AN ANTIBODY USING AN AFFINITY PEPTIDE” (priority 2023, published 2025)

Legend:
Trastuzumab = molecular target: T1, Trastuzumab (Homo sapiens, UniProt P01857, D239E/L241M); test: Bioconjugation handle / GLP1 transfer to trastuzumab, analyzed by Q-ToF LC-MS; assay type: biochemical
T1 construct: purchased Syd Labs Inc; MedChemExpress LLC; Bio X Cell
Method: The conversion rate for each reaction was calculated by one of the following methods. Determination by LC-MS: Reported yields based on LC-MS spectra were determined by extracting the total ion current (TIC) spectra of all protein-containing species in the chromatogram utilizing Agilent MassHunter 6.0 software with BioConfirm package. These extracted chromatograms were deconvoluted utilizing a maximum entropy algorithm and abundance of each species determined using total ion count.
A reaction solution corresponding to 9.0 μg of IgG was taken into a PCR tube and diluted with Tris buffer (100 mM, pH 8.1) to a final volume of 6 μL. […] Afterward, DTT (200 mM in water, 2 μL) was added, and the mixture was further incubated at 37° C. for 1 hour. Finally, the solution was diluted to a volume of 40 μL with a mixture of water and acetonitrile (95:5), and 8 μL of the diluted solution was injected into LC-MS.
Reactions were performed on a 20 μL scale using 0.2 mL PCR tubes (FIG. 61). First, the electrophile-attached Z33 peptide reagent was dissolved in water to prepare a 2 mg/mL solution. Trastuzumab (MedChemExpress LLC. or Bio X Cell), electrophile-attached Z33 peptide reagent (2 mg/mL), and buffer were added to achieve final concentrations of 10 μM, 200 μM, and values listed in the following table, respectively. If the HEPES was used as a buffer, NaCl solution (4M, 1 uL) was added to the reaction mixture. […] The resulting reaction solution was quenched with a 100 mM glycine buffer of 100 mM Tris buffer and analyzed by LC-MS. Sample preparation for LC-MS analysis was performed in the same manner previously described. […] Therefore, a post-processing step was implemented to remove electrophiles using an Amicon® filter. The reaction mixture was diluted to 200 μL with citrate buffer (100 mM, pH 2.7) and filtered through an Amicon® filter (0.5 mL, 50KMWCO) at 14000 rcf for 7 minutes. […]
Reactions were performed on a 20 μL scale using 0.2 mL PCR tubes (FIG. 61). […] The resulting reaction solution was quenched with a 100 mM Tris buffer and analyzed by LC-MS (FIG. 53, Table 8).

Denosumab (hIgG2) = test: Small bioconjugation handle installation to other IgGs (Q-ToF LC-MS); assay type: biochemical, human; conditions: 20 equivalents, room temperature, HEPES pH 8.5
Method: (§1) First, the electrophile-attached Z33 peptide reagent was dissolved in water to prepare a 2 mg/mL solution.
as §1

Mouse IgG1 = test: as above; assay type: biochemical; conditions: 20 equivalents, room temperature
Method: (§2) Reactions were performed on a 10 μL scale using 0.2 mL PCR tubes (FIG. 64). First, the electrophile-attached Z33 peptide reagent was dissolved in water to prepare a 2 mg/mL solution. IgG (human WN1 (prepared as previously described (ChemBioChem, 19, 2039-2044 (2018)), denosumab (Invitrogen), dupilumab (Invitrogen), or mouse IgG1 (Invitrogen, subtype controlled)), electrophile-attached Z33 peptide reagent (2 mg/mL), HEPES buffer (pH 8.5), and NaCl solution were added to achieve final concentrations of 5 μM, 100 μM, 100 mM, and 200 mM. The contents were mixed using a 5 μL pipette and incubated at room temperature in the dark for 24 hours. The resulting reaction solution was quenched with a 100 mM Tris buffer and analyzed by LC-MS (FIGS. 53A to 53D, Table 10). Sample preparation for LC-MS analysis was performed in the same manner as previously described.
(§3) Reactions were performed on a 10 μL scale using 0.2 mL PCR tubes. First, the electrophile-attached Z33 peptide reagent was dissolved in water to prepare a 2 mg/mL solution. Denosumab (Invitrogen), dupilumab (Invitrogen), or mouse IgG1 (Invitrogen, subtype controlled)), electrophile-attached Z33 peptide reagent (2 mg/mL), HEPES buffer (pH 8.5), and NaCl solution were added to achieve final concentrations of 5 μM, 100 μM, 100 mM, and 200 mM. […] The resulting reaction solution was quenched with a 100 mM Tris buffer and analyzed by LC-MS. […]

Dupilumab (hIgG4) = test: as above; assay type: biochemical, human; conditions: 20 equivalents, room temperature
Method: as §2, §3

[1] = HEPES pH 8.5, first column so headed
[2] = HEPES pH 8.5, second column so headed

FNMQQQRRFYEALHD PNLNHcyEQRNAKIKSI RDD [PEL-21]
Light chain total conversion (Trastuzumab; 20 equivalents, PBS, room temperature, 24 h): 12%
Light chains modified with the electrophile (Trastuzumab; hIgG1-2, excess (20 eq.) reagent): less than 2%
Modifications incorporated into the heavy chain of Tmab (Trastuzumab; hIgG1 trastuzumab (1 eq.), peptide 20 eq., after 24 h): up to 99%
Light chain total conversion (Denosumab (hIgG2)): 1%
Light chain total conversion (Mouse IgG1; [1]): 2%
Light chain total conversion (Mouse IgG1; [2]): 69%
Light chain total conversion (Dupilumab (hIgG4); [1]): 13%
Light chain total conversion (Dupilumab (hIgG4); [2]): 96%
